Data on two molecules can be found in US20250380702A1, “HERBICIDAL MIXTURES COMPRISING L-GLUFOSINATE OR ITS SALT AND A SECOND HERBICIDE” (BASF SE, priority 2022, published 2025).

Common to all, as to assay: Greenhouse post emergence treatment, herbicidal activity
For one experiment, the system named is AVEFA. Format: in vivo, Avena fatua. As to conditions: solo application, 7 DAT. From the text:
(§1) Synergism can be described as an interaction where the combined effect of two or more compounds is greater than the sum of the individual effects of each of the compounds. The presence of a synergistic effect in terms of percent control, between two mixing partners (X and Y) can be calculated using the Colby equation (Colby, S. R., 1967, Calculating Synergistic and Antagonistic Responses in Herbicide Combinations, Weeds, 15, 21-22):
(§2) When the observed combined control effect is greater than the expected (calculated) combined control effect (E), then the combined effect is synergistic.
(§3) The culture containers used were plastic flowerpots containing loamy sand with approximately 3.0% of humus as the substrate. The seeds of the test plants were sown separately for each species and/or resistant biotype. For the pre-emergence treatment, the active ingredients, which had been suspended or emulsified in water, were applied directly after sowing by means of finely distributing nozzles. The containers were irrigated gently to promote germination and growth and subsequently covered with transparent plastic hoods until the plants had rooted. This cover caused uniform germination of the test plants, unless this had been impaired by the active ingredients. For the post-emergence treatment, the test plants were first grown to a height of 3 to 15 cm, depending on the plant habit, and only then treated with the active ingredients which had been suspended or emulsified in water. For this purpose, the test plants were either sown directly and grown in the same containers, or they were first grown separately as seedlings and transplanted into the test containers a few days prior to treatment. Depending on the species, the plants were kept at 10-25° C. or 20-35° C., respectively. The test period extended to 20 days after treatment. During this time, the plants were tended, and their response to the individual treatments was evaluated. The evaluation was carried out by using a scale from 0 to 100. 100 means no emergence of the plants or complete destruction of at least the above-ground parts, and 0 means no damage, or normal course of growth.
(§4) As indicated in the respective examples, assessment was either after 7 days or 20 days after treatment (DAT).

A further experiment deals with POLAV. It counts as in vivo, Polygonum aviculare. As to conditions: solo application, 7 DAT.
Source text: as §1, §2, §3, §4

A further experiment relates to Volunteer HORVS. Format: in vivo, Volunteer Barley. As to conditions: for % activity: solo application, post emergence.
Source text: as §1, §2, §3, §4

The test system of the next experiment is ABUTH. Format: in vivo, Abutilon theophrasti. The following applies: solo application; for inhibition at 250 g/ha: Abutilon theophrasti, 250 gai/ha.
Source text: as §1, §2, §3, §4

In another experiment the test system is CHEAL. Format: in vivo, Chenopodium album. The following applies: solo application, 7 DAT.
Source text: as §1, §2, §3, §4

A further experiment has as its system KCHSC. Format: in vivo, Bassia scoparia. As to conditions: for % activity: solo application, post emergence, 7 DAT.
Source text: as §1, §2, §3, §4

[1] abbreviates: Bassia scoparia, post-emergence, 168 h, read-out: % activity.

Molecules are shown by their SMILES. Where “and” joins values, the source holds several entries; their conditions need not be identical. Equal values may be shown once. Read-outs that look alike come from different tables or passages of the source.

`CP(=O)(O)CC[C@H](N)C(=O)O.N` [L-Glu, ammonium (2S)-2-amino-4-(methylphosphinato) butyric acid]: the inhibition at 500 g/ha is 90% in the experiment with AVEFA (Avena fatua, 168 h, 500 gai/ha); 95% in the experiment with POLAV (Polygonum aviculare, 168 h, 500 gai/ha); 95% in the experiment with Volunteer HORVS (Hordeum vulgare, post-emergence, 168 h, read-out: % activity, solo application, 500 gai/ha, post emergence, 7 DAT); 85% with Volunteer HORVS (Hordeum vulgare, post-emergence, 480 h, read-out: % activity, solo application, 500 gai/ha, post emergence, 20 DAT); 95% in the experiment on CHEAL (Chenopodium album, 168 h, 500 gai/ha); 88% in the experiment with KCHSC (setting [1]). The inhibition at 1000 g/ha in the experiment on AVEFA (Avena fatua, 168 h, 1000 gai/ha) worked out at 90%; in the experiment with POLAV (Polygonum aviculare, 168 h, 1000 gai/ha), 95%; with CHEAL (Chenopodium album, 168 h, 1000 gai/ha), 95%; in the experiment with KCHSC (setting [1]), 90%. In addition, the inhibition at 125 g/ha in the experiment on Volunteer HORVS (Hordeum vulgare, post-emergence, 168 h, read-out: % activity, solo application, 125 gai/ha, post emergence, 7 DAT) was 90%. Further, the inhibition at 250 g/ha came out at 90% in the experiment with Volunteer HORVS (Hordeum vulgare, post-emergence, 168 h, read-out: % activity, solo application, 250 gai/ha, post emergence, 7 DAT); 75% in the experiment with Volunteer HORVS (Hordeum vulgare, post-emergence, 480 h, read-out: % activity, solo application, 250 gai/ha, post emergence, 20 DAT); 75% in the experiment with ABUTH (168 h, 7 DAT); 60% with ABUTH (480 h, 20 DAT); 88% in the experiment with KCHSC (setting [1]). For the same molecule, in the experiment on Volunteer HORVS (125 gai/ha, 20 DAT), the “% activity” value is 65% and 35%.

On to `CN1C[C@H](c2cccc(C(F)(F)F)c2)[C@@H](C(=O)Nc2ccccc2F)C1=O` [Tetflupyrolimet], for which the “% activity” value in the experiment on AVEFA (50 gai/ha) is 0%; with AVEFA (100 gai/ha) it was 0%; with POLAV (50 gai/ha) it was 5%; with POLAV (100 gai/ha), 5%; with Volunteer HORVS (12.5 gai/ha, 7 DAT), 0%; in the experiment on Volunteer HORVS (12.5 gai/ha, 20 DAT), 5% and 0%. In addition, the “% activity” value with Volunteer HORVS (25 gai/ha, 7 DAT) is 0%; in the experiment with Volunteer HORVS (25 gai/ha, 20 DAT), 5%; with Volunteer HORVS (50 gai/ha, 7 DAT) it was 0%; in the experiment with Volunteer HORVS (50 gai/ha, 20 DAT), 5%; in the experiment with Volunteer HORVS (100 gai/ha, 7 DAT), 5%; in the experiment on ABUTH (25 gai/ha, 7 DAT), 0%. Further, the “% activity” value in the experiment on ABUTH (25 gai/ha, 20 DAT) is listed as 0%; in the experiment with ABUTH (100 gai/ha, 7 DAT), 0%; in the experiment on ABUTH (100 gai/ha, 20 DAT) it was 0%; with CHEAL (50 gai/ha) it was 15%; in the experiment with CHEAL (100 gai/ha) it was 25%; with KCHSC (25 gai/ha), 0%. Further, the entries for the “% activity” value in the experiment on KCHSC (50 gai/ha) and in the experiment on KCHSC (100 gai/ha) were 0% and 2.5%, respectively.
